Measurements published in US20070027190A1, “Antibacterial fab i inhibitors” (priority 2003, published 2007).
Converted amounts (≈) assume the structure as drawn. Read-outs that look alike come from different tables or passages of the source.

What was measured:
[1] = system: methicillin resistant Staphyloccocus aureus (MRSA, strain ATCC 700699); assay: MIC against methicillin resistant S. aureus (NCCLS dilution); format: cell-based; conditions: Staphylococcus aureus, serial two-fold dilutions, 96-well
Protocol: The sensitivity of methicillin resistant Staphyloccocus aureus (MRSA, strain ATCC 700699, American Type Culture Collection, Manassas, Va.) to the disclosed fabI inhibitors was followed by measuring the minimal inhibitory concentration (MIC) at varying inhibitor levels. This was performed according to NCCLS (National Center for Clinical Laboratory Standards) recommendations (NCCLS, 1997, METHODS FOR DILUTION ANTIMICROBIAL SUSCEPTIBILITY TESTS FOR BACTERIA THAT GROW AEROBICALLY, 4th ed.; approved standard. NCCLS document M7-A4. NCCLS, Wayne, Pa.), in 100 μl volume in 96-well format, with serial two-fold dilutions of drug concentration.

E. coli fabI = target: T1, E. coli fabI (Escherichia coli, UniProt P0AEK4); assay: fabI kinetic assay (NADH absorption at 340 nm, crotonoyl-CoA substrate); format: biochemical
T1 construct: made in house; host or cells: E. coli BL21(DE3)
Protocol: In order to perform more detailed kinetic assays on the disclosed compounds, additional purifed fabI was needed. The E. coli fabI gene was cloned into the pET30a expression vector (Novagen, Inc., Madison, Wis.) and expressed in E. coli BL21(DE3) cells. The purification procedure utilized chromatography with Q-sepharose, blue resin, and HA resin as follows.
Each cell pellet was suspended in a 4 fold-volume of lysis buffer (50 mM KH2PO4 pH 8.0, 100 mM NaCl, 2 mM ethylene glycol tetra-acetic acid (EGTA), and 10% glycerol). Cells were broken by passage through a Microfludics cell disrupter 4 times, and the cell lysate was centrifuged at 30,000×g for 20 minutes. The supernatant was applied to a Q-sepharose column pre-equilibrated in a buffer composed of 10 mM Tris-HCl pH 8.0, 0.1 mM EGTA, 1 mM phenylmethylsulfonylfluoride (PMSF), 100 mM NaCl, 10% glycerol, 0.1% β-mercaptoethanol, and 0.02% Brij 35. fabI was eluted with a NaCl gradient (0.1-1M) in the equilibration buffer. The major peak fractions were pooled and concentrated, then dialyzed overnight at 4° C. in 2 L of dialysis buffer (10 mM Tris-HCl pH 7.5, 0.1 mM EGTA, 0.1 mM PMSF, 10% glycerol, 0.1% β-mercaptoethanol, and 0.02% Brij 35). The dialyzed solution was centrifuged at 3,000×g for 20 minutes, and the supernatant was loaded on a blue resin column pre-equilibrated in a buffer composed of 10 mM Tris-HCl pH 7.5, 0.1 mM EGTA, 1 mM PMSF, 50 mM NaCl, 10% glycerol, 0.1% β-mercaptoethanol, and 0.02% Brij 35. fabI was eluted with the equilibration buffer containing NaCl (gradient 50˜1000 mM). The major peak fractions were pooled and dialyzed overnight at 4° C. in 2 L of the equilibration buffer as described above. Then the dialyzed solution was centrifuged at 3,000×g for 20 minutes, and the supernatant was further purified on a hydroxyapatite column pre-equilibrated in a buffer consisting of 20 mM KH2PO4 pH 8.0, 0.1 mM EGTA, 0.1 mM PMSF, 10% glycerol, 0.1% β-mercaptoethanol, and 0.02% Brij 35. fabI was eluted with a gradient of KH2PO4 up to 500 mM. The peak fractions were pooled and dialyzed in storage buffer (10 mM MOPS pH7.0, 150 mM NaCl, 0.1 mM EGTA, 50% glycerol, 0.02% Brij 35), then stored at −20° C.
The kinetic assay was used to confirm the activity of compounds identified by the single-point assay and screen and to measure the IC50 of compounds which inhibit fabI. It was performed in a 96 well microtiter dish. The final concentrations of each component in each 50 μl reaction are as follows—sodium phosphate pH 7.5, 100 mM; NADH, 200 uM; dithiothreitol (DTT), 1 mM; fabI, 3 ug/ml; crotonoyl-CoA, 0.8 mM.
A 2 ul volume of each compound to be tested was loaded into each well, followed by 30 ul Buffer A (sodium phosphate pH7.5, 100 mM; DTT, 1 mM; fabI, 5 ug/ml, obtained as described below). For IC50 measurements, the compound was tested in serial dilution. The reaction was initiated by adding 20 ul Buffer B (sodium phosphate pH7.5, 100 mM; NADH, 500 uM; DTT, 1 mM; and the substrate, crotonoyl-CoA, 2 mM). The reaction was monitored for 5.5 minutes on a spectrometer by measuring absorption at 340 nm. The rate of reduction of NADH in each reaction well was collected and the percentage inhibition was calculated by using SOFTmax® PRO software (Molecular Devices, Sunnyvale, Calif.). The percentage of inhibition of each compound was calculated according to following formula: Percentage Inhibition=100*(rate in the presence of compound-rate of negative control)/(rate of positive control-rate of negative control)
The negative control was the reaction of fabI in the presence of 2% DMSO but no inhibitory compounds, and the positive control was the mixture of the all reaction components excluding fabI.

[2] = system: fabI (acetate incorporation into fatty acids) in S. aureus strain ATCC 700699; assay: 14C acetate incorporation into fatty acids in S. aureus; format: cell-based; conditions: 0.25x-2x MIC; 0-30 min at 37° C.; FIG. 1
Protocol: Radioactive (14C) acetic acid was added to 0.4 uCi/ml. After incubation at 37° C. for 0, 5, 10, 15, and 30 minutes, samples were taken, and cells were added to ice cold 10% trichloroacetic acid (TCA) for 30 min. Next, cells were filtered (Millipore MultiScreen-FC filters), washed 2× with 200 ul and 1× with 100 ul cold 10% TCA followed by 2× with 200 ul and 1× with 100 ul cold water. The filters were added to 5 ml scintillation fluid and counts per minute were measured in a scintillation counter. The % inhibition of acetate incorporation into fatty acids was determined by comparison to a control consisting of cells not treated with inhibitor.

[3] = system: strain of Staphylococcus aureus that under-expresses a fabI gene under control of a regulated promoter; assay: MIC in IPTG-regulated fabI under-expressing S. aureus strain; format: cell-based
Source text: In general, a bacterial strain which is under-producing the target of interest will be more sensitive to test compounds than a wild-type strain if the compound is acting via inhibition of that target. Accordingly, a strain of Staphylococcus aureus that under-expresses a fabI gene under control of a regulated promoter was constructed.
First, the endogenous S. aureus fabI gene was replaced with a drug-resistance marker (erythromycin-resistance, erm^r) in a two-step allele-replacement procedure (see F. Fan et al., Plasmid, 2001, 46: 71-75). About 1 Kb of DNA sequence flanking each side of the S. aureus fabI gene (SwissProt Q9RMI3; M. Kuroda et al., Lancet 2001, 357:1225-1240) was PCR-amplified from genomic DNA, ligated to an erythromycin-resistance cassette by cross-over PCR (A. J. Link et al., J. Bacteriol., 1997, 179: 6228-6237), and cloned into an allele-replacement suicide vector carrying a kanamycin-resistance marker (kan^r) and the sacB gene encoding levansucrase. This allele-replacement plasmid was introduced by electroporation into an S. aureus host strain carrying the E. coli lactose operon repressor (lacI) and a lac-promoter driving T7 RNA polymerase production from the chromosome. Selection for kan^r yielded cells containing the entire plasmid by means of a single cross-over recombination. […]

T1 sequence (P0AEK4 whole entry): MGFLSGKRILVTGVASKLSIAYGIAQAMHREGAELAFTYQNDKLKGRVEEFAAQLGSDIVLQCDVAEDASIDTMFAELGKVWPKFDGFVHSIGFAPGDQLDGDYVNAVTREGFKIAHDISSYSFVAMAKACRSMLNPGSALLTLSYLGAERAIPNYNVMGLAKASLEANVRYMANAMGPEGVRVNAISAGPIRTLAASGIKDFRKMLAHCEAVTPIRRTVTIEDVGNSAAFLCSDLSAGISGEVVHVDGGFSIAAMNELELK

| SMILES | MIC [1] [µg/mL] | IC50 (E. coli fabI) [µM] | inhibition of acetate incorporation into fatty acids (activity of fabI) [2] | MIC ([3]; read-out: minimum inhibitory concentration (MIC), fabI regulated by IPTG, before the inducer (IPTG) level was reduced) [µg/mL] | MIC ([3]; read-out: minimum inhibitory concentration (MIC), fabI regulated by IPTG, inducer (IPTG) level reduced) [µg/mL] | IC50 (E. coli fabI; purified E. coli fabI 3 ug/ml, NADH 200 uM, crotonoyl-CoA 0.8 mM, pH 7.5, read-out: IC50) [µM] |
| --- | --- | --- | --- | --- | --- | --- |
| N#Cc1c(-c2ccc(Cl)cc2)cc(-c2cccs2)nc1SCC(N)=O [Q] | > 64 | 33 |  |  |  |  |
| N#Cc1c(-c2cccs2)cc(-c2cccs2)nc1SC(C(=O)O)c1ccccc1 (centres unmarked) [Compound C] | 32 (≈ 73.6 µM) | 12.3 |  |  |  |  |
| CC(C)NC(=O)CSc1nc(-c2cccs2)cc(-c2ccc(F)cc2)c1C#N [B] | > 64 | 12 |  |  |  |  |
| N#Cc1c(-c2cccs2)cc(-c2cccs2)nc1SCCc1ccc(C(=O)O)cc1 [E] | 0.75 (≈ 1.67 µM) | 3 |  |  |  |  |
| N#Cc1c(-c2cccs2)cc(-c2cccs2)nc1SCc1cccc(C(=O)O)c1 [G] | 1.5 (≈ 3.45 µM) | 6 |  |  |  |  |
| N#Cc1c(-c2cccs2)cc(-c2cccs2)nc1SCc1ccc(C(=O)O)cc1 [Compound A] | 2 (≈ 4.6 µM) | 4 | marked inhibition | 8 | 4 |  |
| COc1ccc(NC(=O)CSc2nc(-c3cccs3)cc(-c3ccc(F)cc3)c2C#N)cc1OC [D] | > 64 | 9.2 |  |  |  |  |
| CC(Sc1nc(-c2cccs2)cc(-c2cccs2)c1C#N)c1ccc(C(=O)O)cc1 (centres unmarked) [F] | 0.75 (≈ 1.67 µM) | 3 |  |  |  |  |
| COc1ccc(-c2cc(-c3ccco3)c(C#N)c(SCc3ccc(C(=O)O)cc3)n2)cc1 [I] | 8 (≈ 18.1 µM) | 25 |  |  |  |  |
| N#Cc1c(-c2cccs2)cc(-c2cccs2)nc1SCc1ccc(CC(=O)O)cc1 [H] | 4 (≈ 8.92 µM) | 25 |  |  |  |  |
| CC(C)NC(=O)CSc1nc(-c2cccs2)cc(-c2ccc(Cl)cc2)c1C#N [N] | > 64 | 46 |  |  |  |  |
| N#Cc1c(-c2cccs2)cc(-c2cccs2)nc1SCCC(=O)O [P] |  |  |  |  |  | 87 |
